How the values were obtained:
SF-268 = experiment: NCI human tumor cell panel: SF-268 (CNS Cancer); format: cell-based; conditions: SF-268, CNS Cancer; for GI50: read-out: Log10 GI50 (converted); for IC (TGI): read-out: Log10 TGI (converted)
UACC-62 = experiment: NCI human tumor cell panel: UACC-62 (Melanoma); format: cell-based; conditions: UACC-62, Melanoma; for GI50: read-out: Log10 GI50 (converted); for IC (TGI): read-out: Log10 TGI (converted)
UACC-257 = experiment: NCI human tumor cell panel: UACC-257 (Melanoma); format: cell-based; conditions: UACC-257, Melanoma; for GI50: read-out: Log10 GI50 (converted); for IC (TGI): read-out: Log10 TGI (converted)
OVCAR-5 = experiment: NCI human tumor cell panel: OVCAR-5 (Ovarian Cancer); format: cell-based; conditions: OVCAR-5, Ovarian Cancer; for GI50: read-out: Log10 GI50 (converted); for IC (TGI): read-out: Log10 TGI (converted)
SN12C = experiment: NCI human tumor cell panel: SN12C (Renal Cancer); format: cell-based; conditions: Renal Cancer; for GI50: read-out: Log10 GI50 (converted); for IC (TGI): read-out: Log10 TGI (converted)
K-562 = experiment: NCI human tumor cell panel: K-562 (Leukemia); format: cell-based; conditions: K562, K-562, Leukemia; for GI50: read-out: Log10 GI50 (converted); for IC (TGI): read-out: Log10 TGI (converted)
MALME-3M = experiment: NCI human tumor cell panel: MALME-3M (Melanoma); format: cell-based; conditions: MALME-3M, Melanoma; for GI50: read-out: Log10 GI50 (converted); for IC (TGI): read-out: Log10 TGI (converted)
T-47D = experiment: NCI human tumor cell panel: T-47D (Breast Cancer); format: cell-based; conditions: T47D, Breast Cancer; for GI50: read-out: Log10 GI50 (converted); for IC (TGI): read-out: Log10 TGI (converted)
CAKI-1 = experiment: NCI human tumor cell panel: CAKI-1 (Renal Cancer); format: cell-based; conditions: CAKI-1, Renal Cancer
DU-145 = experiment: NCI human tumor cell panel: DU-145 (Prostate Cancer); format: cell-based; conditions: DU-145, Prostate Cancer; for GI50: read-out: Log10 GI50 (converted); for IC (TGI): read-out: Log10 TGI (converted)
SK-OV-3 = experiment: NCI human tumor cell panel: SK-OV-3 (Ovarian Cancer); format: cell-based; conditions: SK-OV-3, Ovarian Cancer; for GI50: read-out: Log10 GI50 (converted); for IC (TGI): read-out: Log10 TGI (converted)
KM12 = experiment: NCI human tumor cell panel: KM12 (Colon Cancer); format: cell-based; conditions: KM12, Colon Cancer; for GI50: read-out: Log10 GI50 (converted); for IC (TGI): read-out: Log10 TGI (converted)
CCRF-CEM = experiment: NCI human tumor cell panel: CCRF-CEM (Leukemia); format: cell-based; conditions: Leukemia; for GI50: read-out: Log10 GI50 (converted); for IC (TGI): read-out: Log10 TGI (converted)
RXF-393 = experiment: NCI human tumor cell panel: RXF-393 (Renal Cancer); format: cell-based; conditions: RXF-393, Renal Cancer; for GI50: read-out: Log10 GI50 (converted); for IC (TGI): read-out: Log10 TGI (converted)
HL-60(TB) = experiment: NCI human tumor cell panel: HL-60(TB) (Leukemia); format: cell-based; conditions: Leukemia; for GI50: read-out: Log10 GI50 (converted)
HOP-92 = experiment: NCI human tumor cell panel: HOP-92 (Non-Small Cell Lung Cancer); conditions: for GI50: HOP-92, read-out: Log10 GI50 (converted); for IC (TGI): HOP-92, read-out: Log10 TGI
SR = experiment: NCI human tumor cell panel: SR (Leukemia); format: cell-based; conditions: Leukemia; for GI50: read-out: Log10 GI50 (converted); for IC (TGI): read-out: Log10 TGI (converted)
MDA-MB-231/ATCC = experiment: NCI human tumor cell panel: MDA-MB-231/ATCC (Breast Cancer); format: cell-based; conditions: Homo sapiens, MDA-MB-231, MDA-MB-231/ATCC, Breast Cancer
NCI-H226 = experiment: NCI human tumor cell panel: NCI-H226 (Non-Small Cell Lung Cancer); format: cell-based; conditions: NCI-H226, Non-Small Cell Lung Cancer; for GI50: read-out: Log10 GI50 (converted); for IC (TGI): read-out: Log10 TGI (converted)
PC-3 = experiment: NCI human tumor cell panel: PC-3 (Prostate Cancer); format: cell-based; conditions: PC-3, Prostate Cancer; for GI50: read-out: Log10 GI50 (converted); for IC (TGI): read-out: Log10 TGI (converted)
HCT-15 = experiment: NCI human tumor cell panel: HCT-15 (Colon Cancer); format: cell-based; conditions: HCT-15, Colon Cancer; for GI50: read-out: Log10 GI50 (converted); for IC (TGI): read-out: Log10 TGI (converted)
HOP-62 = experiment: NCI human tumor cell panel: HOP-62 (Non-Small Cell Lung Cancer); format: cell-based; conditions: HOP-62, Non-Small Cell Lung Cancer; for GI50: read-out: Log10 GI50 (converted); for IC (TGI): read-out: Log10 TGI (converted)
COLO 205 = experiment: NCI human tumor cell panel: COLO 205 (Colon Cancer); format: cell-based; conditions: COLO 205, Colon Cancer; for GI50: read-out: Log10 GI50 (converted); for IC (TGI): read-out: Log10 TGI (converted)
MCF7 = experiment: NCI human tumor cell panel: MCF7 (Breast Cancer); format: cell-based; conditions: MCF7, Breast Cancer; for GI50: read-out: Log10 GI50 (converted); for IC (TGI): read-out: Log10 TGI (converted)
HCC-2998 = experiment: NCI human tumor cell panel: HCC-2998 (Colon Cancer); format: cell-based; conditions: HCC-2998, Colon Cancer; for GI50: read-out: Log10 GI50 (converted)
HS 578T = experiment: NCI human tumor cell panel: HS 578T (Breast Cancer); format: cell-based; conditions: Breast Cancer; for GI50: read-out: Log10 GI50 (converted); for IC (TGI): read-out: Log10 TGI (converted)
SNB-19 = experiment: NCI human tumor cell panel: SNB-19 (CNS Cancer); format: cell-based; conditions: SNB-19, CNS Cancer; for GI50: read-out: Log10 GI50 (converted); for IC (TGI): read-out: Log10 TGI (converted)
OVCAR-4 = experiment: NCI human tumor cell panel: OVCAR-4 (Ovarian Cancer); format: cell-based; conditions: OVCAR-4, Ovarian Cancer; for IC (TGI): read-out: Log10 TGI (converted)
[1] = system: panel of sixty different human tumor cell lines; experiment: NCI human tumor cell panel: whole panel (mean graph summary)
[2] = read-out: Log10 GI50 (converted)
[3] = read-out: Log10 TGI (converted)

O=Cc1ccc(-c2ccc(-c3ccc(C=O)s3)[se]2)s1 [NSC 675345]
GI50 (SF-268): > 100 µM | IC (TGI) (SF-268): > 100 µM | GI50 (UACC-62): 0.347 µM | IC (TGI) (UACC-62): 2.82 µM | GI50 (UACC-257): 1.38 µM | IC (TGI) (UACC-257): > 100 µM | GI50 (OVCAR-5): 1.55 µM | IC (TGI) (OVCAR-5): 5.37 µM | GI50 (SN12C): 0.257 µM | IC (TGI) (SN12C): 1.66 µM | GI50 (K-562): 30.9 µM | IC (TGI) (K-562): > 100 µM | GI50 (MALME-3M): > 100 µM | IC (TGI) (MALME-3M): > 100 µM | GI50 (T-47D): 79.4 µM | IC (TGI) (T-47D): > 100 µM | GI50 (CAKI-1; [2]): 32.4 µM | IC (TGI) (CAKI-1; [3]): > 100 µM | GI50 (DU-145): > 100 µM | IC (TGI) (DU-145): > 100 µM | GI50 (SK-OV-3): 55 µM | IC (TGI) (SK-OV-3): > 100 µM | GI50 (KM12): > 100 µM | IC (TGI) (KM12): > 100 µM | GI50 (CCRF-CEM): > 100 µM | IC (TGI) (CCRF-CEM): > 100 µM | GI50 (RXF-393): > 100 µM | IC (TGI) (RXF-393): > 100 µM | GI50 (HL-60(TB)): > 100 µM | GI50 (HOP-92): 14.5 µM | IC (TGI) (HOP-92): 55 µM | GI50 (SR): > 100 µM | IC (TGI) (SR): > 100 µM | GI50 (MDA-MB-231/ATCC; [2]): 18.2 µM | IC (TGI) (MDA-MB-231/ATCC; [3]): > 100 µM | GI50 (NCI-H226): 0.575 µM | IC (TGI) (NCI-H226): 2.45 µM | GI50 (PC-3): > 100 µM | IC (TGI) (PC-3): > 100 µM | GI50 (HCT-15): > 100 µM | IC (TGI) (HCT-15): > 100 µM | GI50 (HOP-62): 47.9 µM | IC (TGI) (HOP-62): > 100 µM | GI50 (COLO 205): 33.9 µM | IC (TGI) (COLO 205): > 100 µM | GI50 (MCF7): 0.724 µM | IC (TGI) (MCF7): 5.62 µM | GI50 (HCC-2998): 2.34 µM | IC (TGI) (HCC-2998; [3]): 6.92 µM | GI50 (HS 578T): 67.6 µM | IC (TGI) (HS 578T): > 100 µM | GI50 (SNB-19): 31.6 µM | IC (TGI) (SNB-19): > 100 µM | IC (TGI) (OVCAR-4): > 100 µM

O=Cc1ccc(-c2ccc(-c3cccs3)[se]2)s1 [NSC 675346]
GI50 (SF-268): 19.1 µM | IC (TGI) (SF-268): > 100 µM | GI50 (UACC-62): < 0.01 µM | IC (TGI) (UACC-62): 0.0282 µM | GI50 (UACC-257): 0.0263 µM | IC (TGI) (UACC-257): 0.0832 µM | GI50 (OVCAR-5): 0.0447 µM | IC (TGI) (OVCAR-5): 0.575 µM | GI50 (SN12C): > 100 µM | IC (TGI) (SN12C): > 100 µM | GI50 (K-562): 2.29 µM | IC (TGI) (K-562): > 100 µM | GI50 (MALME-3M): 34.7 µM | IC (TGI) (MALME-3M): > 100 µM | GI50 (T-47D): 18.2 µM | IC (TGI) (T-47D): 40.7 µM | GI50 (DU-145): 28.8 µM | IC (TGI) (DU-145): > 100 µM | GI50 (SK-OV-3): 12.6 µM | IC (TGI) (SK-OV-3): > 100 µM | GI50 (KM12): 32.4 µM | IC (TGI) (KM12): > 100 µM | GI50 (CCRF-CEM): > 100 µM | IC (TGI) (CCRF-CEM): > 100 µM | GI50 ([1]; Homo sapiens, read-out: Log10 GI50, cell line not given (converted)): 1.7 µM | CC50 ([1]; Homo sapiens, read-out: Log10 LC50, cell line not given (converted)): > 100 µM | Log10 TGI ([1]; cell line not given): >−4.00 | GI50 (RXF-393): 16.2 µM | IC (TGI) (RXF-393): 42.7 µM | GI50 (HL-60(TB)): > 100 µM | IC (TGI) (HL-60(TB); read-out: Log10 TGI): > 100 µM | GI50 (HOP-92): 18.6 µM | IC (TGI) (HOP-92): 70.8 µM | GI50 (SR): > 100 µM | IC (TGI) (SR): > 100 µM | GI50 (NCI-H226): 0.0174 µM | IC (TGI) (NCI-H226): 0.12 µM | GI50 (PC-3): 61.7 µM | IC (TGI) (PC-3): > 100 µM | GI50 (HCT-15): 18.6 µM | IC (TGI) (HCT-15): > 100 µM | GI50 (HOP-62): 64.6 µM | IC (TGI) (HOP-62): > 100 µM | GI50 (COLO 205): 4.79 µM | IC (TGI) (COLO 205): > 100 µM | GI50 (MCF7): 0.813 µM | IC (TGI) (MCF7): > 100 µM | GI50 (HCC-2998): 0.234 µM | GI50 (HS 578T): 23.4 µM | IC (TGI) (HS 578T): > 100 µM | GI50 (SNB-19): 21.9 µM | IC (TGI) (SNB-19): 95.5 µM | GI50 (OVCAR-4; [2]): 0.12 µM | IC (TGI) (OVCAR-4): 26.9 µM
